Measured values reported in paper PMC9151520 (Archives of Toxicology, 2022).
Several values for one entry are separate records, joined by “and”; a condition that tells them apart may be missing. Identical values can stand only once. Counter-ions that a name gives are not always drawn. Like-named read-outs stand apart in the source and are kept apart here.

How the values were obtained:
[1] = system: p53 signaling (p53RE-bla HCT-116 cells); experiment: cells; assay type: cell-based
[2] = system: p53 signaling (p53RE-bla HCT-116 cells)
[3] = system: p53 signaling (p53RE-bla HCT-116 cells); remark: listed apart in the source
p53RE-bla HCT-116 cells [4] = system: p53RE-bla HCT-116 cells
p53RE-bla HCT-116 cells [5] = experiment: cells; conditions: Homo sapiens
[6] = Homo sapiens, HCT-116, read-out: p53 activation EC50, primary screening
[7] = Homo sapiens, HCT-116, read-out: p53 activation efficacy, primary screening
[8] = HCT-116, read-out: Viability EC50, cherry pick confirmation
[9] = HCT-116, read-out: Viability EC50, primary screening
[10] = Homo sapiens, HCT-116, read-out: p53 activation EC50, cherry pick confirmation
[11] = Homo sapiens, HCT-116, read-out: p53 activation efficacy, cherry pick confirmation
[12] = Homo sapiens, HCT-116, read-out: EC50, p53 activation, cherry pick confirmation
[13] = Homo sapiens, HCT-116, read-out: Efficacy, p53 activation, cherry pick confirmation
[14] = HCT-116, read-out: EC50, viability, cherry pick confirmation
[15] = Homo sapiens, HCT-116, read-out: EC50, p53 activation, primary screening
[16] = Homo sapiens, HCT-116, read-out: Efficacy, p53 activation, primary screening

Compound	EC50 [1, 6] [µM]	Emax [1, 7] [%]	p53 activation EC50, cherry pick confirmation [2]	p53 activation EC50, primary screening [2]	p53 activation efficacy, cherry pick confirmation [2]	p53 activation efficacy, primary screening [2]	p53 activation EC50, cherry pick confirmation [3]	p53 activation EC50, primary screening [3]	p53 activation efficacy, cherry pick confirmation [3]	p53 activation efficacy, primary screening [3]	Viability EC50, cherry pick confirmation (p53RE-bla HCT-116 cells [4])	EC50 (p53RE-bla HCT-116 cells [5]; [8]) [µM]	EC50 [1, 10] [µM]	Emax [1, 11] [%]	Viability EC50, primary screening (p53RE-bla HCT-116 cells [4])	EC50 [1, 12] [µM]	Emax [1, 13] [%]	EC50, p53 activation, cherry pick confirmation [2]	Efficacy, p53 activation, cherry pick confirmation [2]	EC50, p53 activation, cherry pick confirmation [3]	other results
COc1cc(/C=C/C(=O)CC(=O)/C=C/c2ccc(O)c(OC)c2)ccc1O [Curcumin]	15.4	65.1	inactive	inactive	inactive	inactive	inactive	inactive	inactive	inactive	inactive	16.3									p53 activation EC50, cherry pick confirmation [1]: inactive; p53 activation efficacy, cherry pick confirmation [1]: inactive; EC50 (p53RE-bla HCT-116 cells [4]; read-out: Viability EC50, primary screening): 38 µM and 46.9 µM; EC50 (p53RE-bla HCT-116 cells [5]; [9]): 31.7 µM
CC(C)C[C@H](NC(=O)[C@H](CCc1ccccc1)NC(=O)CN1CCOCC1)C(=O)N[C@@H](Cc1ccccc1)C(=O)N[C@@H](CC(C)C)C(=O)[C@@]1(C)CO1 [Carfilzomib]	0.142	82	inactive	inactive	inactive	inactive	inactive	inactive	inactive	inactive	inactive		0.0597	111	inactive						EC50 (p53RE-bla HCT-116 cells [5]; [9]): 0.75 µM
Oc1c(Cl)cc(Cl)c(Cl)c1Cc1c(O)c(Cl)cc(Cl)c1Cl [Hexachlorophene]	19.9	45.4	inactive	inactive	inactive	inactive	inactive	inactive	inactive	inactive	inactive	2.23	18	99.6							
CO[C@@]12[C@H](COC(N)=O)C3=C(C(=O)C(C)=C(N)C3=O)N1C[C@@H]1N[C@@H]12 [Mitomycin C]																2.12	134	inactive	inactive	inactive	EC50, p53 activation, primary screening [3]: inactive; Efficacy, p53 activation, cherry pick confirmation [3]: inactive; Efficacy, p53 activation, primary screening [3]: inactive; EC50, viability, cherry pick confirmation (p53RE-bla HCT-116 cells [4]): inactive; EC50, viability, primary screening (p53RE-bla HCT-116 cells [4]): inactive; Efficacy, viability, primary screening (p53RE-bla HCT-116 cells [4]): inactive; EC50 (p53RE-bla HCT-116 cells [5]; [14]): 17.8 µM
O=Nc1ccc(Nc2ccccc2)cc1 [4-Nitrosodiphenylamine]	47.6	61.2	inactive	inactive	inactive	inactive	inactive	inactive	inactive	inactive	inactive	40.8	27.6	84.9	inactive						Viability efficacy, primary screening (p53RE-bla HCT-116 cells [4]): inactive; EC50 (p53RE-bla HCT-116 cells [4]; read-out: Viability EC50, cherry pick confirmation): 36.3 µM
CC[C@@]1(O)C(=O)OCc2c1cc1n(c2=O)Cc2cc3c(CN(C)C)c(O)ccc3nc2-1 [Topotecan hydrochloride]																0.589	179	inactive	inactive	inactive	EC50 [1, 15]: 0.0771 µM; Emax [1, 16]: 69.5%; EC50, p53 activation, primary screening [2]: inactive; Efficacy, p53 activation, primary screening [2]: inactive; EC50, p53 activation, primary screening [3]: inactive; Efficacy, p53 activation, cherry pick confirmation [3]: inactive; Efficacy, p53 activation, primary screening [3]: inactive; EC50, viability, cherry pick confirmation (p53RE-bla HCT-116 cells [4]): inactive; EC50, viability, primary screening (p53RE-bla HCT-116 cells [4]): inactive; Efficacy, viability, primary screening (p53RE-bla HCT-116 cells [4]): inactive; EC50 (p53RE-bla HCT-116 cells [5]; [14]): 3.98 µM
CCOC(=O)C1(c2ccccc2)CCN(CCC(C#N)(c2ccccc2)c2ccccc2)CC1 [Diphenoxylate hydrochloride]	6.87	77.1	inactive	inactive	inactive	inactive	inactive	inactive	inactive	inactive	inactive	3.16	8.23	152	inactive						Viability efficacy, primary screening (p53RE-bla HCT-116 cells [4]): inactive
CC(C)=CCC1=C(O)C(=O)c2ccccc2C1=O [Lapachol]																					p53 activation efficacy [1]: 104.839; EC50 ([1]; read-out: p53 activation EC50): 3.38 µM; p53 activation EC50 [2]: inactive; p53 activation EC50 [3]: inactive; Viability EC50 (p53RE-bla HCT-116 cells [4]): inactive; EC50 (p53RE-bla HCT-116 cells [5]; HCT-116, read-out: Viability EC50): 1.38 µM
CC1=CC(=O)c2ccccc2C1=O [Menadione]																16.2	33.9	inactive	inactive	inactive	EC50 [1, 15]: 40.3 µM; Emax [1, 16]: 31.2%; EC50, p53 activation, primary screening [2]: inactive; Efficacy, p53 activation, primary screening [2]: inactive; EC50, p53 activation, primary screening [3]: inactive; Efficacy, p53 activation, cherry pick confirmation [3]: inactive; Efficacy, p53 activation, primary screening [3]: inactive; EC50 (p53RE-bla HCT-116 cells [4]; read-out: EC50, viability, cherry pick confirmation): 42.4 µM; EC50 (p53RE-bla HCT-116 cells [4]; read-out: EC50, viability, primary screening): 42.4 µM and 46.3 µM; EC50 (p53RE-bla HCT-116 cells [5]; [14]): 36.3 µM; EC50 (p53RE-bla HCT-116 cells [5]; HCT-116, read-out: EC50, viability, primary screening): 51.3 µM
CN(C)c1ccc2nc3ccc(=[N+](C)C)cc-3sc2c1 [Methylene blue]	10.3	53.4	inactive	inactive	inactive	inactive	inactive	inactive	inactive	inactive	inactive	15.8	15.3	53.2	inactive						Viability efficacy, primary screening (p53RE-bla HCT-116 cells [4]): inactive
Oc1cc(Cl)c(Cl)c(Cl)c1 [3,4,5-Trichlorophenol]																48.4	40.3	inactive	inactive	inactive	EC50 [1, 15]: 40.3 µM; Emax [1, 16]: 25.7%; EC50, p53 activation, primary screening [2]: inactive; Efficacy, p53 activation, primary screening [2]: inactive; EC50, p53 activation, primary screening [3]: inactive; Efficacy, p53 activation, cherry pick confirmation [3]: inactive; Efficacy, p53 activation, primary screening [3]: inactive; EC50, viability, cherry pick confirmation (p53RE-bla HCT-116 cells [4]): inactive; EC50, viability, primary screening (p53RE-bla HCT-116 cells [4]): inactive; Efficacy, viability, primary screening (p53RE-bla HCT-116 cells [4]): inactive; EC50 (p53RE-bla HCT-116 cells [5]; [14]): 27.4 µM
